Consider 11 compounds from PubChem BioAssay (NCI).

Holding throughout (assay): inhibition of tumour cell growth, NCI panel, 48 h
Assay [1] deals with LXFL 529 NSCLC.
The subject of assay [2] is DLD-1 colon.
The subject of assay [3] is M19-MEL melanoma.
In assay [4] the test system is SF-268 CNS.
Assay [5] has as its system 786-0 renal.
The test system of assay [6] is DMS 114 small cell lung.
In assay [7] the test system is SNB-78 CNS.
Assay [8] relates to NCI-H522 lung.
Assay [9] has as its system XF 498 CNS.
Assay [10] concerns RXF-631 renal.
Assay [11] has as its system DMS 273 small cell lung.
For assay [12], the system named is KM20L2 colon.
Assay [13] relates to ACHN renal.
Assay [14] deals with HOP-18 NSCLC.

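These data come from cells grown in 96-well plates and exposed to compound for 48 hours at five concentrations. TGI: concentration producing complete growth inhibition.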

Consider `O=C(c1ccccc1)C1S(=O)(=O)OCCOS1(=O)=O`, for which the TGI in assay [1], in assay [2], in assay [3], in assay [4], in assay [5] and in assay [6] was > 100 µM throughout. Also, the TGI in [7], in [8], in [9], in assay [10] and in assay [11] was > 100 µM each time.
As for `N#C/C(=C/c1ccc2c(c1)OCO2)C(=O)c1ccccc1`, the TGI in assay [1], in assay [2], in [12], in assay [3], in assay [4] and in assay [13] was > 100 µM in each case. Moreover, the TGI in [5], in [7], in [14], in [8] and in assay [9] was > 100 µM throughout.
On to `C[N+](C)(C)CC(=O)N/N=C(/C(=O)Nc1ccc(Br)cc1)C1C(=O)NC(=O)NC1=O`, for which the TGI in assay [1], in assay [2], in assay [12], in assay [3], in [4] and in [13] was > 100 µM in each case. The TGI in assay [5], in [6], in assay [7], in assay [14], in [8] and in assay [10] was > 100 µM in each case. Besides, the TGI in assay [11] is > 100 µM.
On to `O=C(CSc1nc(-c2ccccc2)c(-c2ccccc2)[nH]1)N/N=C/c1ccc(O)cc1`, for which the TGI was 99.5 µM in assay [1]; > 100 µM in assay [2]; 55.8 µM in assay [12]; 51 µM in assay [3]; 88.5 µM in [4]; 55.9 µM in assay [13]. In addition, the TGI in assay [5] was 54.8 µM; in assay [6], 57.5 µM; in assay [7] it was > 100 µM; in assay [14], > 100 µM; in assay [8], 48.6 µM; in [9], 99.6 µM. This compound gave a TGI in assay [11] of 48.3 µM.
Take `Cc1cc2c(C)n(Cc3ccccc3Cl)nc2c(C(=O)O)c1C`: the TGI in assay [1], in assay [2], in [12], in assay [3], in assay [4] and in assay [13] was > 100 µM each time. For the same compound, the TGI in assay [5], in [7], in assay [14], in assay [9] and in assay [11] was > 100 µM each time.
With `O=c1[nH]c2ccccc2nc1/C=C(\O)c1ccccc1O`, the TGI in [1], in assay [2], in assay [12], in assay [3], in assay [4] and in [13] was > 100 µM each time. For the same compound, the TGI in assay [5], in [6], in [7], in [14], in [8] and in assay [11] was > 100 µM throughout.
As to `COc1ccc([C@@H]2CC(=O)N2)cc1`, the TGI in [1], in assay [2], in assay [12], in [4], in [13] and in assay [5] was > 100 µM in each case. Besides, the TGI in assay [6], in assay [7], in [14], in assay [8], in [9] and in assay [11] was > 100 µM in each case.
As to `O=C1/C=C(/c2ccc(O)cc2)[C@@H](O)Cc2ccc(O)cc2O1`, the TGI in [1], in assay [2], in assay [12], in assay [3], in assay [4] and in [13] was > 100 µM each time. The TGI in [5], in assay [6], in assay [7], in [8] and in assay [10] was > 100 µM each time.
Regarding `CCOC(=O)/C(=C/c1ccc(C(=O)OC)cc1)N(CC)CC`, the TGI in [1], in [12], in [3], in [4], in assay [13] and in assay [5] was > 100 µM in each case. Also, the results for the TGI in assay [6], in assay [7] and in [8] were > 100 µM, 91.7 µM and > 100 µM, respectively.
With `O=C1CC(c2ccccc2)=Nc2ccccc2N1`, the TGI in assay [1], in assay [2], in assay [12], in [3], in assay [4] and in assay [13] was > 100 µM in each case. Besides, the TGI in assay [5], in [7], in assay [14], in [8], in [9] and in assay [11] was > 100 µM in each case.
Regarding `O=[N+]([O-])C(/C=N/Nc1ccccc1)/C=N/Nc1ccccc1`, the TGI in assay [1], in assay [2], in [12], in assay [3], in [4] and in [13] was > 100 µM throughout. In addition, the TGI in assay [5], in assay [6], in assay [7], in assay [14], in assay [8] and in assay [9] was > 100 µM each time. Further, in assay [11], the TGI was > 100 µM.
